No end group written: not given here.
Legend:
[1] = test system: B16 melanoma tumors; test: Multivalent ligands modulate B16 melanoma tumor growth in mice; type: in vivo; settings: C57BL or CBF1 mice; S.C. injection remote from tumor, 20-30 mg/kg body weight/day for two weeks, started one week after tumor inoculation
Protocol: B16 melanoma cells were injected into 7-8 week old female C57BL mice or CBF1 mice, S.C., 2×10^5 cells per mouse, in 0.1 ml volume. One week after the tumor innoculation, the treatment was started by S.C. injection at sites remote from the tumor of the indicated multivalent ligand at a dose 20-30 mg/kg body weight/day for a period of two weeks. Tumors were measured with a dial-caliper and volumes were determined using the formula: (width)^2×length×0.52. Each group (experimental or control) contained 5-6 mice. FIGS. 6-9 depict changes in mean tumor-volume over time.

[2] = test system: bovine aortic endothelial cells (A19 cells); test: Proliferation of bovine aortic endothelial cells in vitro (methylene blue staining, O.D. 630 nm); type: cell-based; settings: increasing concentrations (μg/ml), 72-80 hours incubation, medium with 1 ng/ml basic fibroblast growth factor; relative to untreated cells
Protocol: The experiments were performed using 96 well, flat bottom, tissue culture microtiter plates. Culture medium was prepared from DMEM, penicillin (100 U/ml), streptomycin (100 μg/ml), glutamine (2 mM), 10% endotoxin free bovine calf serum (Hyclone) and 1 ng/ml of basic fibroblast growth factor (any commericial source).
Bovine aortic endothelial cells (referred to herein as "A19 cells") were obtained by procedures disclosed in Gospodorowicz et al., Proc. Natl. Acad. Sci. USA 73:4120 (1976), the entire teachings of which are incorporated herein by reference. An A19 cell suspension at 25×10^3 cells/ml was prepared in the above described culture medium and distributed 0.160 ml/well (about 4000 endothelial cells/well).
Multivalent ligand peptides Tip-18.40 and Tip-19.40 stock solutions was prepared by diluting a 10 mM solution of the HJ peptide in 100% DMSO with phosphate buffered saline (PBS)containing 0.1% BSA. The concentration of HJ peptide in each stock solution was adjusted to nine times the desired concentration of the HJ peptide in the assay mixture. 0.020 ml of each HJ peptide stock solution was added to the corresponding wells about 2 hours after BCE plating, with six replicates for each concentration. […]
The wells were washed one time with borate buffer (0.1 M, pH 8.5). […] After extracting overnight, the O.D. was read at 630 nm to determine the relative number of cells per well. […]

| Substance | effect on B16 melanoma tumor growth (mean tumor volume over time versus vehicle control) [1] | effect on proliferation of bovine aortic endothelial cells in vitro [2] |
| --- | --- | --- |
| Tip-15.40: four-branch pennant polylysine trimer; four TSP-1/endostatin hybrid peptides of SEQ ID NO.: 4 attached by covalent bond (Ac-AYRWRLSHRPKDLYSIVRRADG; also: four copies on branched polylysine core) | weak, but statistically significant inhibition | – |
| Tip-18.40: four-branch pennant polylysine trimer; four hybrid peptides of SEQ ID NO.: 11 attached via -Gly-Gly- linker (Ac-RWRLSHRPKDLYSIVRRADR; not fully specified; printed as Ac-RWRLSHRPKDLYSIVRRADR; also: four copies on polylysine core via Gly-Gly linker) | suppressed tumor growth | inhibit the proliferation |
| Tip-19.40: four-branch pennant polylysine trimer; four hybrid peptides of SEQ ID NO.: 12 attached via -Gly-Gly- linker (Ac-KDFTAYRWRLSHRPKDLYSIVRRADR; not fully specified; printed as Ac-KDFTAYRWRLSHRPKDLYSIVRRADR; also: four copies on polylysine core via Gly-Gly linker) | suppressed tumor growth | inhibit the proliferation |
| Tip-13.40: four-branch pennant polylysine trimer; four peptides of SEQ ID NO.: 8 (TSP-1 AHR derivative) attached by covalent bond (Ac-AYRWRLSHRPKTGFIRVVMYEG; also: four copies on branched polylysine core) | suppressed tumor growth | – |
| Tip-16.40: four-branch pennant polylysine trimer; four hybrid peptides of SEQ ID NO.: 10 attached via -Gly-Gly- linker (Ac-AYRWRLSHRPKDLYSIVRRADR; not fully specified; printed as Ac-AYRWRLSHRPKDLYSIVRRADR; also: four copies on polylysine core via Gly-Gly linker) | suppressed tumor growth | – |
| Tip-14.40: four-branch pennant polylysine trimer; four TSP-1/endostatin hybrid peptides of SEQ ID NO.: 3 attached by covalent bond (Ac-TFRAFLSSRLQTGFIRVVMYEG; also: four copies on branched polylysine core) | weak, but statistically significant inhibition | – |
| Tip-17.40: four-branch pennant polylysine trimer; four hybrid peptides of SEQ ID NO.: 9 attached via -Gly-Gly- linker (Ac-TAYRWRLSHRPKDLYSIVRRADR; not fully specified; printed as Ac-TAYRWRLSHRPKDLYSIVRRADR; also: four copies on polylysine core via Gly-Gly linker) | promoted tumor growth | – |
| Tip-12.40: four-branch pennant polylysine trimer; four peptides of SEQ ID NO.: 7 (endostatin AHR derivative) attached by covalent bond (Ac-TFRAFLSSRLQDLYSIVRRADG; also: four copies on branched polylysine core) | suppressed tumor growth | – |

From patent publication US6235716A, “Multivalent ligands which modulate angiogenesis” (Children's Medical Center Corporation, priority 1999, dated 2001)
